Assay results reported in patent US20100298244A1, “COMPOSITION FOR THE PREVENTION AND THE TREATMENT OF HELICOBACTER PYLORI INFECTION” (NATIONAL TAIWAN UNIVERSITY, priority 2009, published 2010).

Test system: 20 Helicobacter pylori strains
Test: MIC by agar dilution method
Type: cell-based

In the case of `CC(=O)N[C@H]1[C@H]([C@H](O)[C@H](O)CO)OC(O)(C(=O)O)C[C@@H]1O` (stereo partly shown) [Sialic acid, N-Acetylneuraminic acid], the “MIC Range” value (20 H. pylori strains (10 resistant to metronidazole and clarithromycin, 10 sensitive)) was greater than 4 mg/mL, the MIC (Helicobacter pylori, 20 H. pylori strains, read-out: MIC For 50% of strains) was greater than 4000 µg/mL and the MIC90 (Helicobacter pylori, 20 H. pylori strains, read-out: MIC For 90% of strains (MIC90)) was greater than 4000 µg/mL. The “inhibitory activity against Helicobacter pylori” value (alone) was “did not show any inhibitory activity”.
